Source: EP0049968A1, “Pharmaceutical compositions” (priority 1980, dated 1982)
Like-named read-outs stand apart in the source and are kept apart here.

Tested on: K-aerogenes strains producing both a plasmid-mediated and chromosomally mediated β-lactamase
Test: MIC of compound (i) alone and in combination with compound (iii), K. aerogenes strains
Type: cell-based, Klebsiella aerogenes
Details: for MIC: Klebsiella aerogenes

CC1(C)S[C@@H]2[C@H](NC(=O)[C@H](NC(=O)Nc3cnc(Nc4ccc(S(N)(=O)=O)cc4)nc3O)c3ccc(O)cc3)C(=O)N2[C@H]1C(=O)O [compound (i)]
MIC (read-out: MIC µg/ml compound (i) alone): > 160 µg/mL
MIC (read-out: MIC µg/ml compound (i) alone, Geometric mean): > 160 µg/mL
MIC µg/ml compound (i) compound (iii) (µg/ml) 1, Geometric mean (geometric mean of 11 K. aerogenes strains, with compound (iii) 1 µg/ml, 95% confidence limits (0.49-50.9)): 5.0 µg/mL
MIC µg/ml compound (i) compound (iii) (µg/ml) 2, Geometric mean (geometric mean of 11 K. aerogenes strains, with compound (iii) 2 µg/ml, 95% confidence limits (0.3-14.4)): 2.1 µg/mL
MIC µg/ml compound (i) compound (iii) (µg/ml) 5, Geometric mean (geometric mean of 11 K. aerogenes strains, with compound (iii) 5 µg/ml, 95% confidence limits (0.14-4.5)): 0.81 µg/mL
MIC µg/ml compound (i) compound (iii) (µg/ml) 10, Geometric mean (geometric mean of 11 K. aerogenes strains, with compound (iii) 10 µg/ml, 95% confidence limits (0.04-0.9)): 0.19 µg/mL
MIC µg/ml compound (i) alone (strain 11793): >160 µg/mL
MIC µg/ml compound (i) compound (iii) (µg/ml) 1 (strain 11793, with compound (iii) 1 µg/ml): 10 µg/mL
MIC µg/ml compound (i) compound (iii) (µg/ml) 2 (strain 11793, with compound (iii) 2 µg/ml): 5 µg/mL
MIC µg/ml compound (i) compound (iii) (µg/ml) 5 (strain 11793, with compound (iii) 5 µg/ml): 2.5 µg/mL
MIC µg/ml compound (i) compound (iii) (µg/ml) 10 (strain 11793, with compound (iii) 10 µg/ml): 1.25 µg/mL
MIC µg/ml compound (i) alone (strain 11974): >160 µg/mL
MIC µg/ml compound (i) compound (iii) (µg/ml) 1 (strain 11974, with compound (iii) 1 µg/ml): 0.31 µg/mL
MIC µg/ml compound (i) compound (iii) (µg/ml) 2 (strain 11974, with compound (iii) 2 µg/ml): 0.16 µg/mL
MIC µg/ml compound (i) compound (iii) (µg/ml) 5 (strain 11974, with compound (iii) 5 µg/ml): 0.08 µg/mL
MIC µg/ml compound (i) compound (iii) (µg/ml) 10 (strain 11974, with compound (iii) 10 µg/ml): 0.04 µg/mL
MIC µg/ml compound (i) compound (iii) (µg/ml) 2 (strain BED4, with compound (iii) 2 µg/ml): 2.5 µg/mL
MIC µg/ml compound (i) compound (iii) (µg/ml) 5 (strain BED4, with compound (iii) 5 µg/ml): 1.25 µg/mL
MIC µg/ml compound (i) compound (iii) (µg/ml) 10 (strain BED4, with compound (iii) 10 µg/ml): 0.31 µg/mL
MIC µg/ml compound (i) alone (strain BED6): >160 µg/mL
MIC µg/ml compound (i) compound (iii) (µg/ml) 1 (strain BED6, with compound (iii) 1 µg/ml): 0.62 µg/mL
MIC µg/ml compound (i) compound (iii) (µg/ml) 2 (strain BED6, with compound (iii) 2 µg/ml): 0.31 µg/mL
MIC µg/ml compound (i) compound (iii) (µg/ml) 5 (strain BED6, with compound (iii) 5 µg/ml): 0.16 µg/mL
MIC µg/ml compound (i) compound (iii) (µg/ml) 10 (strain BED6, with compound (iii) 10 µg/ml): 0.08 µg/mL
MIC µg/ml compound (i) alone (strain BED9): >160 µg/mL
MIC µg/ml compound (i) compound (iii) (µg/ml) 1 (strain BED9, with compound (iii) 1 µg/ml): 0.31 µg/mL
MIC µg/ml compound (i) compound (iii) (µg/ml) 2 (strain BED9, with compound (iii) 2 µg/ml): 0.31 µg/mL
MIC µg/ml compound (i) compound (iii) (µg/ml) 5 (strain BED9, with compound (iii) 5 µg/ml): 0.16 µg/mL
MIC µg/ml compound (i) compound (iii) (µg/ml) 10 (strain BED9, with compound (iii) 10 µg/ml): 0.04 µg/mL
MIC µg/ml compound (i) alone (strain Ba95): >160 µg/mL
MIC µg/ml compound (i) compound (iii) (µg/ml) 1 (strain Ba95, with compound (iii) 1 µg/ml): 0.31 µg/mL
MIC µg/ml compound (i) compound (iii) (µg/ml) 2 (strain Ba95, with compound (iii) 2 µg/ml): 0.31 µg/mL
MIC µg/ml compound (i) compound (iii) (µg/ml) 5 (strain Ba95, with compound (iii) 5 µg/ml): 0.16 µg/mL
MIC µg/ml compound (i) compound (iii) (µg/ml) 10 (strain Ba95, with compound (iii) 10 µg/ml): 0.02 µg/mL
MIC µg/ml compound (i) alone (strain SA4): >160 µg/mL
MIC µg/ml compound (i) compound (iii) (µg/ml) 1 (strain SA4, with compound (iii) 1 µg/ml): 2.5 µg/mL
MIC µg/ml compound (i) compound (iii) (µg/ml) 2 (strain SA4, with compound (iii) 2 µg/ml): 1.25 µg/mL
MIC µg/ml compound (i) compound (iii) (µg/ml) 5 (strain SA4, with compound (iii) 5 µg/ml): 0.31 µg/mL
MIC µg/ml compound (i) compound (iii) (µg/ml) 10 (strain SA4, with compound (iii) 10 µg/ml): 0.08 µg/mL
MIC µg/ml compound (i) alone (strain VA1): >160 µg/mL
MIC µg/ml compound (i) compound (iii) (µg/ml) 1 (strain VA1, with compound (iii) 1 µg/ml): 10 µg/mL
MIC µg/ml compound (i) compound (iii) (µg/ml) 2 (strain VA1, with compound (iii) 2 µg/ml): 5 µg/mL
MIC µg/ml compound (i) compound (iii) (µg/ml) 5 (strain VA1, with compound (iii) 5 µg/ml): 2.5 µg/mL
MIC µg/ml compound (i) compound (iii) (µg/ml) 10 (strain VA1, with compound (iii) 10 µg/ml): 0.31 µg/mL
MIC µg/ml compound (i) alone (strain VA2): >160 µg/mL
MIC µg/ml compound (i) compound (iii) (µg/ml) 1 (strain VA2, with compound (iii) 1 µg/ml): 40 µg/mL
MIC µg/ml compound (i) compound (iii) (µg/ml) 2 (strain VA2, with compound (iii) 2 µg/ml): 10 µg/mL
MIC µg/ml compound (i) compound (iii) (µg/ml) 5 (strain VA2, with compound (iii) 5 µg/ml): 2.5 µg/mL
MIC µg/ml compound (i) compound (iii) (µg/ml) 10 (strain VA2, with compound (iii) 10 µg/ml): 0.62 µg/mL
MIC µg/ml compound (i) alone (strain VA3): >160 µg/mL
MIC µg/ml compound (i) compound (iii) (µg/ml) 1 (strain VA3, with compound (iii) 1 µg/ml): 40 µg/mL
MIC µg/ml compound (i) compound (iii) (µg/ml) 2 (strain VA3, with compound (iii) 2 µg/ml): 10 µg/mL
MIC µg/ml compound (i) compound (iii) (µg/ml) 5 (strain VA3, with compound (iii) 5 µg/ml): 2.5 µg/mL
MIC µg/ml compound (i) compound (iii) (µg/ml) 10 (strain VA3, with compound (iii) 10 µg/ml): 0.31 µg/mL
MIC µg/ml compound (i) alone (strain VA5): >160 µg/mL
MIC µg/ml compound (i) compound (iii) (µg/ml) 1 (strain VA5, with compound (iii) 1 µg/ml): >80 µg/mL
MIC µg/ml compound (i) compound (iii) (µg/ml) 2 (strain VA5, with compound (iii) 2 µg/ml): 80 µg/mL
MIC µg/ml compound (i) compound (iii) (µg/ml) 5 (strain VA5, with compound (iii) 5 µg/ml): 20 µg/mL
MIC µg/ml compound (i) compound (iii) (µg/ml) 10 (strain VA5, with compound (iii) 10 µg/ml): 2.5 µg/mL
